In patent US5849923A, “Heterocyclic-substituted naphthalenyl retinobenzoic acid derivatives” (Bristol-Myers Squibb Company, priority 1996, dated 1998):
Where two headings read alike, the source gives them in different places.

Key:
rhino mouse utriculi = assay: Rhino mouse utriculi reduction assay; assay type: in vivo, hairless rhino mice (hr^rh /hr^rh); conditions: once daily for 5 days; for activity in rhino mouse utriculi reduction model (in words): topical; for ED30 (concentration to reach 30% (half-maximum) utriculi reduction): topical in ethanol vehicle (50 μl), female rhino mice, 0.00033 mM to 16.5 mM
Method: Representatives from compounds of formula I were tested for their effect on utriculi reduction on rhino mouse and directly compared to all-trans retinoic acid.
Six to nine week old female hairless rhino mice (hr^rh /hr^rh) were produced in the Bristol-Myers Squibb colony. Test retinoids in ethanol vehicle (50 μl) were applied to the dorsal area (approximately 1.5×3 cm^2) of rhino mice once daily for 5 days (Monday to Friday). For various retinoids, a dose response was obtained with concentrations ranging from 0.00033 mM to 16.5 mM. The animals were sacrificed on the following Monday by CO2 inhalation. A 7/8" full thickness punch was taken from the central dorsal area of each animal. The epidermis of the biopsy was removed from the dermis after incubation in 0.5% acetic acid overnight at 4° C. The separated epidermis was then fixed in formalin, dehydrated with ethanol, and cleared in xylene. To determine the utriculi diameter, each epidermis sheet was placed on a glass slide in xylene. For each specimen, the diameter of 40 utricules was measured with an image analysis system (IBM PC, Image Measure program and Olympus microscope with video camera). % Utriculi reduction was calculated as [formula]
Since the maximum effect in this assay is approximately 60% utriculi reduction, the activity of various test compounds is reported as ED30 in Table 1, the concentration to reach 30% (half-maximum) utriculi reduction.

L2987 = assay: Cytotoxicity assay (alamarBlue), lung line L2987, experiment 2; assay type: cell-based; conditions: Homo sapiens, read-out: IC50 values for L2987 experiment 2
Method: FIG. 1 is the cytotoxicity dose response curves for lung line L2987. […] Briefly, the assayed involved plating 1000 cells per well in a volume of 120 μL in a 96 well flat-bottom dish (Corning) on day -1. Twenty-four hours later the appropriate dilution of a compound of formula I was added in a volume of 30 μL complete medium (final volume 150 μL). The plates were sealed with a plate sealer (Dynatech Labs) to prevent evaporation. On day 5 the mylar film was removed and 15 μL of sterile alamarblue was added to each well and the cells were incubated 37° C. 5% CO2 for two hours. Using a Vmax plate reader the optical density for each well was determined having the […]. The 100% signal was determined for cells grown in complete medium containing only 0.5% DMSO. All wells were set-up in triplicate and the mean values were plotted in FIG. 1.

[1] = system: squamous-cell carcinoma of the head and neck; conditions: Hong, W. K. et al., N. Engl. J. Med., 1990; cited from earlier work
[2] = 120 h, L2987, experiment 2, read on day 5, alamarBlue

Compound: CC1(C)CC=C(c2cccnc2)c2cc(C(=O)Nc3ccc(C(=O)O)cc3)ccc21 [I^2 f, 4-[[[[5,6-Dihydro-5,5-dimethyl-8-(3-pyridinyl)]-2-naphthalenyl]carbonyl]amino]benzoic acid]
- activity in rhino mouse utriculi reduction model (in words) (rhino mouse utriculi): inactive

Compound: CC1(C)CC=C(c2ccoc2)c2cc(C(=O)Nc3ccc(C(=O)O)cc3)ccc21 [I^2 d, 4-[[[[5,6-Dihydro-5,5-dimethyl-8-(3-furyl)]-2-naphthalenyl]carbonyl]amino]benzoic acid]
- activity in rhino mouse utriculi reduction model (in words) (rhino mouse utriculi): inactive

Compound: Cc1ccsc1C1=CCC(C)(C)c2ccc(C(=O)Nc3ccc(C(=O)O)cc3)cc21 [I^2 b]
- IC50 (L2987; [2]): 50 µM

Compound: CC1(C)CC=C(c2ccsc2)c2cc(C(=O)Nc3ccc(C(=O)O)cc3)ccc21 [I^2 e, 4-[[[[5,6-Dihydro-5,5-dimethyl-8-(3-thienyl)]-2-naphthalenyl]carbonyl]amino]benzoic acid]
- ED30 (concentration to reach 30% (half-maximum) utriculi reduction) (rhino mouse utriculi): 3890 µM

Compound: CC1=C(/C=C/C(C)=C/C=C/C(C)=C\C(=O)O)C(C)(C)CCC1 [Isotretinoin]
- prevention of second primary tumors (in words) [1]: useful in prevention of second primary tumors

Compound: CC1=C(/C=C/C(C)=C/C=C/C(C)=C/C(=O)O)C(C)(C)CCC1 [All trans retinoic acid, reference compound]
- IC50 (L2987; L2987, 120 h): 68 µM

Compound: Cn1cccc1C1=CCC(C)(C)c2ccc(C(=O)Nc3ccc(C(=O)O)cc3)cc21 [I^2 g, 4-[[[[5,6-Dihydro-5,5-dimethyl-8-(2-N-methylpyrolyl)]-2-naphthalenyl]carbonyl]amino]benzoic acid]
- ED30 (concentration to reach 30% (half-maximum) utriculi reduction) (rhino mouse utriculi): 2070 µM

Compound: CC1(C)CC=C(c2cccs2)c2cc(C(=O)Nc3ccc(C(=O)O)cc3)ccc21 [I^2 a, 4-[[[[5,6-Dihydro-5,5-dimethvl-8-(2-thienyl)]-2naphthalenyl]carbonyl]amino]benzoic acid]
- IC50 (L2987; [2]): 64 µM
- ED30 (concentration to reach 30% (half-maximum) utriculi reduction) (rhino mouse utriculi): > 10000 µM
